Measured values taken from US10392391B2 (Vertex Pharmaceuticals Incorporated, priority 2012, dated 2019).
pKi: −log10 of the molar value.

Target: ATR kinase (full-length ATR) (Homo sapiens (Human), UniProt Q13535)
Experiment: ATR inhibition assay (radioactive-phosphate incorporation)
Type: biochemical
Details: Ki(app), 5 nM full-length ATR, 10 μM ATP, 25° C.
Summary of the method: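 Radiometric 33P incorporation by 5 nM full-length ATR into 800 μM target peptide with 10 μM [γ-33P]ATP, in 50 mM Tris/HCl pH 7.5, 10 mM MgCl2, 1 mM DTT, 7% DMSO, 25° C. Compound pre-incubated 10 minutes; reaction stopped after 24 hours, captured on phosphocellulose. Ki(app) from non-linear regression of initial rates.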

ATR kinase (full-length ATR), sequence (Q13535 whole entry): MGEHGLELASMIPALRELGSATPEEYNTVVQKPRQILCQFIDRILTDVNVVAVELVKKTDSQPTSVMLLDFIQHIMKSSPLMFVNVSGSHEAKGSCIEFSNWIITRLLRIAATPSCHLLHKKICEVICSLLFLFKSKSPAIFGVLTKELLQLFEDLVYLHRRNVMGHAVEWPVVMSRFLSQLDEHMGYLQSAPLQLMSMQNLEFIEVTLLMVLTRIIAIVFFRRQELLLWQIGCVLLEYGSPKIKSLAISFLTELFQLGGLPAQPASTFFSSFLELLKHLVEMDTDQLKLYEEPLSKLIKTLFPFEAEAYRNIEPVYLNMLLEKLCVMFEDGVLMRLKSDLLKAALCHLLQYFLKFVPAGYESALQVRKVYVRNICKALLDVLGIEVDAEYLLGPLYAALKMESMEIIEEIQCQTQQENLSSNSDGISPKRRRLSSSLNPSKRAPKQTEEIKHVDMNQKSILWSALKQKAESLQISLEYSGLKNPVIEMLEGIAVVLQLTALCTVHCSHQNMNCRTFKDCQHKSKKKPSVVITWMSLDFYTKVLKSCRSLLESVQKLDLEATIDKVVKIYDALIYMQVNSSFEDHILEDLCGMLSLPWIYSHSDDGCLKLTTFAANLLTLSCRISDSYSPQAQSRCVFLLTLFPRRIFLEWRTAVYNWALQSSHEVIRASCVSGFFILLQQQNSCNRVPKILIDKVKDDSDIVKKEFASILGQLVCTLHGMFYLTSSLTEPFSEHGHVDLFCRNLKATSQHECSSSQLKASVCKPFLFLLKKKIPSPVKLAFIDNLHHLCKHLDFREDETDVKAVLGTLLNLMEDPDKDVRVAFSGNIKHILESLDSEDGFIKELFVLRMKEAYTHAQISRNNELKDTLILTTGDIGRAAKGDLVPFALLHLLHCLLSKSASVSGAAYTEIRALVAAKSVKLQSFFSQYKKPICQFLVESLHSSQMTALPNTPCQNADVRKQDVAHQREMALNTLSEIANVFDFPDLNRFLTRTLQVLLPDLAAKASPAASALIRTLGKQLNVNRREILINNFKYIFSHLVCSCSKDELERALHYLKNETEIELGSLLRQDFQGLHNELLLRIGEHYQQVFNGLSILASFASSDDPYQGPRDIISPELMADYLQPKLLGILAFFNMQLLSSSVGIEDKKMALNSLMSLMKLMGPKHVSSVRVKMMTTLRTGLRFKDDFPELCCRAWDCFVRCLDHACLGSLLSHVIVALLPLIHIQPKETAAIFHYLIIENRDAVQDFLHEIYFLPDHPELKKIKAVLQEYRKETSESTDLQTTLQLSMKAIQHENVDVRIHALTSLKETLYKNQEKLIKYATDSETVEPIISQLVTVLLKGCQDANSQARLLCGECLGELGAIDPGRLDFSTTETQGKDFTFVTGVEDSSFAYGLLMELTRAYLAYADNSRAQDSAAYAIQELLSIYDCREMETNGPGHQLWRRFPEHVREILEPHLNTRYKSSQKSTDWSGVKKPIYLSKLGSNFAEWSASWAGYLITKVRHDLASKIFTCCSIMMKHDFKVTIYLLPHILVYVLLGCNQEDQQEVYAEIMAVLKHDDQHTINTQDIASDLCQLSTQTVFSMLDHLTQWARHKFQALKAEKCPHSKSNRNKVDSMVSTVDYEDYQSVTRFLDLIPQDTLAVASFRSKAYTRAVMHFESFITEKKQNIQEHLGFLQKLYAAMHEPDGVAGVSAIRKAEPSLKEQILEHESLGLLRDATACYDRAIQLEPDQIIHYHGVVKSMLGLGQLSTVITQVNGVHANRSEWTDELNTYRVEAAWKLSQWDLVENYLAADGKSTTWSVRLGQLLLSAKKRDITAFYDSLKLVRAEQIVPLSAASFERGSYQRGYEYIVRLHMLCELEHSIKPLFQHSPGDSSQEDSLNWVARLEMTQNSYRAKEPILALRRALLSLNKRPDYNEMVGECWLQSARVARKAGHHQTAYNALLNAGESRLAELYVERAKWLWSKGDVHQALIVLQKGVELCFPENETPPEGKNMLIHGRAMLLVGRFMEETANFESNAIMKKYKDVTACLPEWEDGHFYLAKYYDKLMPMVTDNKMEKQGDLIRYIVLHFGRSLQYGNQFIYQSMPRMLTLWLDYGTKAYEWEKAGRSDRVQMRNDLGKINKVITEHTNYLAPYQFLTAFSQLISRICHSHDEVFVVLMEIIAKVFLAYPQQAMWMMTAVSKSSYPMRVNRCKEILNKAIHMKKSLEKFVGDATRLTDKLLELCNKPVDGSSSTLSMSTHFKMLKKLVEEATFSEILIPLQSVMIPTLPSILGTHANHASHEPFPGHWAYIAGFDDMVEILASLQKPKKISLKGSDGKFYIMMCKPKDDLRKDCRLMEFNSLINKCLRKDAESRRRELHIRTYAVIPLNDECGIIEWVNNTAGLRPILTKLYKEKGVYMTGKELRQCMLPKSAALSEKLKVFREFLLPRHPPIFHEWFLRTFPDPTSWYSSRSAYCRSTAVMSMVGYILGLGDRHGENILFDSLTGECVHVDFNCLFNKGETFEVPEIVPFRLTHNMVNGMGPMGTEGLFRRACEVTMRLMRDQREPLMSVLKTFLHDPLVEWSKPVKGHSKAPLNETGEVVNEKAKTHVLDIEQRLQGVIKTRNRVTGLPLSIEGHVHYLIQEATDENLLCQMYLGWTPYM

| pKi | SMILES |
| --- | --- |
| 6.00 to 8.00 | CN1CC2(CCN(c3ccncc3NC(=O)c3c(N)nn4cc(F)cnc34)CC2)OC1=O [I-N-216, 2-amino-6-fluoro-N-(4-(3-methyl-2-oxo-1-oxa-3,8-diazaspiro[4.5]decan-8-yl)pyridin-3-yl)pyrazolo[1,5-a]pyrimidine-3-carboxamide] |
| 6.00 to 8.00 | Nc1nn2cc(F)cnc2c1C(=O)Nc1cnccc1N1CCN2C(=O)CC[C@H]2C1 [I-N-217, (S)-2-amino-6-fluoro-N-(4-(6-oxohexahydropyrrolo[1,2-a]pyrazin-2(1H)-yl)pyridin-3-yl)pyrazolo[1,5-a]pyrimidine-3-carboxamide] |
| 6.00 to 8.00 | Cc1nc(C)n(-c2ccncc2NC(=O)c2c(N)nn3cc(F)cnc23)n1 [I-N-218, 2-amino-N-(4-(3,5-dimethyl-1H-1,2,4-triazol-1-yl)pyridin-3-yl)-6-fluoropyrazolo[1,5-a]pyrimidine-3-carboxamide] |
| 6.00 to 8.00 | Nc1nn2cc(F)cnc2c1C(=O)Nc1cnccc1-n1ccnc1C(F)(F)F [I-N-219, 2-amino-6-fluoro-N-(4-(2-(trifluoromethyl)-1H-imidazol-1-yl)pyridin-3-yl)pyrazolo[1,5-a]pyrimidine-3-carboxamide] |
| 6.00 to 8.00 | CC1(C)CCCN1c1ccncc1NC(=O)c1c(N)nn2cc(F)cnc12 [I-N-220, 2-amino-N-(4-(2,2-dimethylpyrrolidin-1-yl)pyridin-3-yl)-6-fluoropyrazolo[1,5-a]pyrimidine-3-carboxamide] |
| 6.00 to 8.00 | CS(=O)(=O)C1CCCN(c2ccncc2NC(=O)c2c(N)nn3cc(F)cnc23)C1 (stereo not shown) [I-N-221, 2-amino-6-fluoro-N-(4-(3-(methylsulfonyl)piperidin-1-yl)pyridin-3-yl)pyrazolo[1,5-a]pyrimidine-3-carboxamide] |
| 6.00 to 8.00 | Nc1nn2cc(F)cnc2c1C(=O)Nc1cnccc1N1CC(=O)N2CCCC2C1 (stereo not shown) [I-N-222, 2-amino-6-fluoro-N-(4-(4-oxohexahydropyrrolo[1,2-a]pyrazin-2(1H)-yl)pyridin-3-yl)pyrazolo[1,5-a]pyrimidine-3-carboxamide] |
| 6.00 to 8.00 | Cc1ccnn1-c1ccncc1NC(=O)c1c(N)nn2cc(F)cnc12 [I-N-223, 2-amino-6-fluoro-N-(4-(5-methyl-1H-pyrazol-1-yl)pyridin-3-yl)pyrazolo[1,5-a]pyrimidine-3-carboxamide] |
| 6.00 to 8.00 | CN1C[C@@H]2CCN(c3ccncc3NC(=O)c3c(N)nn4cc(F)cnc34)C[C@@H]2C1=O [I-N-224, 2-amino-6-fluoro-N-(4-((3aR,7aR)-2-methyl-3-oxohexahydro-1H-pyrrolo[3,4-c]pyridin-5(6H)-yl)pyridin-3-yl)pyrazolo[1,5-a]pyrimidine-3-carboxamide] |
| 6.00 to 8.00 | Cc1ccn(-c2ccncc2NC(=O)c2c(N)nn3cc(F)cnc23)n1 [I-N-225, 2-amino-6-fluoro-N-(4-(3-methyl-1H-pyrazol-1-yl)pyridin-3-yl)pyrazolo[1,5-a]pyrimidine-3-carboxamide] |
| 6.00 to 8.00 | Nc1nn2cc(F)cnc2c1C(=O)Nc1cnccc1N1CCC2(CC1)COC2 [I-N-226, N-(4-(2-oxa-7-azaspiro[3.5]nonan-7-yl)pyridin-3-yl)-2-amino-6-fluoropyrazolo[1,5-a]pyrimidine-3-carboxamide] |
| 6.00 to 8.00 | CN1CCOCC1C(=O)N1CCN(c2c(F)cncc2NC(=O)c2c(N)nn3cc(F)cnc23)CC1 (stereo not shown) [I-N-227, 2-amino-6-fluoro-N-(5-fluoro-4-(4-(4-methylmorpholine-3-carbonyl)piperazin-1-yl)pyridin-3-yl)pyrazolo[1,5-a]pyrimidine-3-carboxamide] |
| 6.00 to 8.00 | Nc1nn2cc(F)cnc2c1C(=O)Nc1cncc(F)c1N1CCN(CC(=O)N2CCC2)CC1 [I-N-228, 2-amino-N-(4-(4-(2-(azetidin-1-yl)-2-oxoethyl)piperazin-1-yl)-5-fluoropyridin-3-yl)-6-fluoropyrazolo[1,5-a]pyrimidine-3-carboxamide] |
| 6.00 to 8.00 | CN1CC2(CCN(c3c(F)cncc3NC(=O)c3c(N)nn4cc(F)cnc34)CC2)OC1=O [I-N-229, 2-amino-6-fluoro-N-(5-fluoro-4-(3-methyl-2-oxo-1-oxa-3,8-diazaspiro[4.5]decan-8-yl)pyridin-3-yl)pyrazolo[1,5-a]pyrimidine-3-carboxamide] |
| 6.00 to 8.00 | Nc1nn2cc(F)cnc2c1C(=O)Nc1cnccc1N1CCC(N2CCCC2=O)CC1 [I-N-230, 2-amino-6-fluoro-N-(4-(4-(2-oxopyrrolidin-1-yl)piperidin-1-yl)pyridin-3-yl)pyrazolo[1,5-a]pyrimidine-3-carboxamide] |
| 6.00 to 8.00 | CN1CC2(CCC1=O)CCN(c1ccncc1NC(=O)c1c(N)nn3cc(F)cnc13)CC2 [I-N-231, 2-amino-6-fluoro-N-(4-(2-methyl-3-oxo-2,9-diazaspiro[5.5]undecan-9-yl)pyridin-3-yl)pyrazolo[1,5-a]pyrimidine-3-carboxamide] |
| 6.00 to 8.00 | Nc1nn2cc(F)cnc2c1C(=O)Nc1cncc(F)c1N1CC(=O)N2CCCC2C1 (stereo not shown) [I-N-232, 2-amino-6-fluoro-N-(5-fluoro-4-(4-oxohexahydropyrrolo[1,2-a]pyrazin-2(1H)-yl)pyridin-3-yl)pyrazolo[1,5-a]pyrimidine-3-carboxamide] |

| pKi | SMILES |
| --- | --- |
| 6.00 to 8.00 | CN1CCN2CCN(c3ccncc3NC(=O)c3c(N)nn4cc(F)cnc34)CC2C1=O (stereo not shown) [I-N-233, 2-amino-6-fluoro-N-(4-(8-methyl-9-oxohexahydro-1H-pyrazino[1,2-a]pyrazin-2(6H)-yl)pyridin-3-yl)pyrazolo[1,5-a]pyrimidine-3-carboxamide] |
| 6.00 to 8.00 | CN(C)C(=O)C1CN(c2ccncc2NC(=O)c2c(N)nn3cc(F)cnc23)CCO1 (stereo not shown) [I-N-234, 4-(3-(2-amino-6-fluoropyrazolo[1,5-a]pyrimidine-3-carboxamido)pyridin-4-yl)-N,N-dimethylmorpholine-2-carboxamide] |
| 6.00 to 8.00 | CN1C(=O)CCC12CCN(c1ccncc1NC(=O)c1c(N)nn3cc(F)cnc13)CC2 [I-N-235, 2-amino-6-fluoro-N-(4-(1-methyl-2-oxo-1,8-diazaspiro[4.5]decan-8-yl)pyridin-3-yl)pyrazolo[1,5-a]pyrimidine-3-carboxamide] |
| 6.00 to 8.00 | CN1CC2(CCN(c3ccncc3NC(=O)c3c(N)nn4cc(F)cnc34)CC2)CC1=O [I-N-236, 2-amino-6-fluoro-N-(4-(2-methyl-3-oxo-2,8-diazaspiro[4.5]decan-8-yl)pyridin-3-yl)pyrazolo[1,5-a]pyrimidine-3-carboxamide] |
| 6.00 to 8.00 | Cc1cncc(NC(=O)c2c(N)nn3cc(F)cnc23)c1-n1nccc1C [I-N-237] |
| 6.00 to 8.00 | Nc1nn2cc(F)cnc2c1C(=O)Nc1cnccc1N1CCN2C(=O)OCC2C1 (stereo not shown) [I-N-238, 2-amino-6-fluoro-N-(4-(3-oxotetrahydro-1H-oxazolo[3,4-a]pyrazin-7(3H)-yl)pyridin-3-yl)pyrazolo[1,5-a]pyrimidine-3-carboxamide] |
| 6.00 to 8.00 | Nc1nn2cc(F)cnc2c1C(=O)Nc1cncc(F)c1N1CCC2(CC1)COC2 [I-N-239, 2-amino-6-fluoro-N-(5-fluoro-4-(2-oxa-7-azaspiro[3.5]nonan-7-yl)pyridin-3-yl)pyrazolo[1,5-a]pyrimidine-3-carboxamide] |
| 6.00 to 8.00 | CN1CCN2CCN(c3c(F)cncc3NC(=O)c3c(N)nn4cc(F)cnc34)CC2C1=O (stereo not shown) [I-N-240, 2-amino-6-fluoro-N-(5-fluoro-4-(8-methyl-9-oxohexahydro-1H-pyrazino[1,2-a]pyrazin-2(6H)-yl)pyridin-3-yl)pyrazolo[1,5-a]pyrimidine-3-carboxamide] |
| 6.00 to 8.00 | Nc1nn2cc(F)cnc2c1C(=O)Nc1cnccc1N1CCC(c2ncon2)CC1 [I-N-241, N-(4-(4-(1,2,4-oxadiazol-3-yl)piperidin-1-yl)pyridin-3-yl)-2-amino-6-fluoropyrazolo[1,5-a]pyrimidine-3-carboxamide] |
| 6.00 to 8.00 | CC1(S(C)(=O)=O)CCN(c2ccncc2NC(=O)c2c(N)nn3cc(F)cnc23)CC1 [I-N-243, 2-amino-6-fluoro-N-(4-(4-methyl-4-(methylsulfonyl)piperidin-1-yl)pyridin-3-yl)pyrazolo[1,5-a]pyrimidine-3-carboxamide] |
| 6.00 to 8.00 | Nc1nn2cc(F)cnc2c1C(=O)Nc1cnccc1N1CCN2C(=O)CCCC2C1 (stereo not shown) [I-N-244, 2-amino-6-fluoro-N-(4-(6-oxohexahydro-1H-pyrido[1,2-a]pyrazin-2(6H)-yl)pyridin-3-yl)pyrazolo[1,5-a]pyrimidine-3-carboxamide] |
| 6.00 to 8.00 | Nc1nn2cc(F)cnc2c1C(=O)Nc1cncc(F)c1N1CCCC1 [I-N-246, 2-amino-6-fluoro-N-(5-fluoro-4-(pyrrolidin-1-yl)pyridin-3-yl)pyrazolo[1,5-a]pyrimidine-3-carboxamide] |
| 6.00 to 8.00 | Nc1nn2cc(F)cnc2c1C(=O)Nc1cnccc1N1CCN2[C@@H](CCS2(=O)=O)C1 [I-N-247, (S)-2-amino-N-(4-(1,1-dioxidotetrahydro-2H-isothiazolo[2,3-a]pyrazin-5(3H)-yl)pyridin-3-yl)-6-fluoropyrazolo[1,5-a]pyrimidine-3-carboxamide] |
| 6.00 to 8.00 | Nc1nn2cc(F)cnc2c1C(=O)Nc1cncc(F)c1N1CCN2C(=O)OC[C@@H]2C1 [I-N-248, (S)-2-amino-6-fluoro-N-(5-fluoro-4-(3-oxotetrahydro-1H-oxazolo[3,4-a]pyrazin-7(3H)-yl)pyridin-3-yl)pyrazolo[1,5-a]pyrimidine-3-carboxamide] |
| 6.00 to 8.00 | Nc1nn2cc(F)cnc2c1C(=O)Nc1cnccc1N1CCN(C(=O)C2COC2)CC1 [I-N-249] |
| 6.00 to 8.00 | Nc1nn2cc(F)cnc2c1C(=O)Nc1cncc(F)c1N1CCS(=O)(=O)CC1 [I-N-250, 2-amino-N-(4-(1,1-dioxidothiomorpholino)-5-fluoropyridin-3-yl)-6-fluoropyrazolo[1,5-a]pyrimidine-3-carboxamide] |
| 6.00 to 8.00 | CC(=O)N1CC2(CCN(c3ccncc3NC(=O)c3c(N)nn4cc(F)cnc34)CC2)C1 [I-N-251, N-(4-(2-acetyl-2,7-diazaspiro[3.5]nonan-7-yl)pyridin-3-yl)-2-amino-6-fluoropyrazolo[1,5-a]pyrimidine-3-carboxamide] |
